This passage reports IC50 results from PMC10058245 (Science Advances, 2023).

Molecules are shown by their SMILES. Where a chain is given by its changes, count along the chain named.

Experiment [1] addresses T1, VRAC (SWELL1/LRRC8A-containing volume-regulated anion channel) (Homo sapiens, UniProt Q8IWT6).
T1 sequence (Q8IWT6 1-810): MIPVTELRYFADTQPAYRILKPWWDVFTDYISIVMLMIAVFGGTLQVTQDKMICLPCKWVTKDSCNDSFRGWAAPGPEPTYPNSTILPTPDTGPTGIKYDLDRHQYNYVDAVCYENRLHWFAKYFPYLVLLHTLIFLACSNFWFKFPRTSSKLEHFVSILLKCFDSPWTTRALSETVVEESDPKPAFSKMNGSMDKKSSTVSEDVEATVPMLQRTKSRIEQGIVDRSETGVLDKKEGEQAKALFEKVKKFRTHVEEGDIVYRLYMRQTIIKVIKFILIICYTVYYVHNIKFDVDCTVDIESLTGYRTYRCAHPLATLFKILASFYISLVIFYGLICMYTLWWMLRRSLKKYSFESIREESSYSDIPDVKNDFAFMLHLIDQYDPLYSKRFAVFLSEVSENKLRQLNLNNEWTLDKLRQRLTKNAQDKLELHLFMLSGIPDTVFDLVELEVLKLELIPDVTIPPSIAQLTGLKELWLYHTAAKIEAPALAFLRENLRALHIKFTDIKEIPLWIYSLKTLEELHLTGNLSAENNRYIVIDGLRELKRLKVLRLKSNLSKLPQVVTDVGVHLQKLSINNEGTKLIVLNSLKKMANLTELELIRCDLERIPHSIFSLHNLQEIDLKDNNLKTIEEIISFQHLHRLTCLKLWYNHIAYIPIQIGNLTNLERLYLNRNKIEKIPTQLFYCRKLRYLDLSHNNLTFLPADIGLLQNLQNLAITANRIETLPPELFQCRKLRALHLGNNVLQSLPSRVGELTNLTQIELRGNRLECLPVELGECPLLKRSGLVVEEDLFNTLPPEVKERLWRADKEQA
Description: whole-cell patch clamp of hypotonicity-induced VRAC currents. It is filed as cell-based. In general terms: The patch-clamp technique gives a direct electrical read-out from membranes.

Experiment [2] concerns the target T2, VRAC (Swell1/Lrrc8a-containing volume-regulated anion channel) (Mus musculus, UniProt Q80WG5).
T2 sequence (Q80WG5 1-810): T1 sequence (Q8IWT6 1-810) with P75S, G76S, I86V, I276A, A591V, I715V, T722A, N792S
In words: whole-cell patch clamp of hypotonicity-induced VRAC currents in BV2 microglia. It is filed as cell-based.

As for `O=c1oc2ccccc2c(O)c1Cc1c(O)c2ccccc2oc1=O` [dicumarol], the IC50 (as a rule, the concentration needed to halve the response being measured) in experiment [1] is 3.8 µM; in experiment [2] it was 4.1 µM.

As for `COc1cc(C(=O)NS(=O)(=O)c2ccccc2C)ccc1Cc1cn(C)c2ccc(NC(=O)OC3CCCC3)cc12` [zafirlukast], in experiment [1], the IC50 was found to be 4.9 µM.
